Test results published in patent US20210196670A1, “ORAL FORMULATIONS OF LAVENDER AND CANNABINOIDS” (EMERALD HEALTH THERAPEUTICS CANADA INC., priority 2018, published 2021).

Tested on: activation of NF-κB by TNFα
Assay: NF-κB luciferase reporter assay (TNFα-stimulated NIH-3T3-KBFLuc cells)
Assay type: cell-based
Details: for Experiment 1 % of activity / Experiment 2 % of activity / Experiment 3 % of activity / Conclusions: Is inhibition of TNF activation of NF-κB observed?: cannabinoid 10 μM alone; for Experiment 1 % of activity / Experiment 2 % of activity / Experiment 3 % of activity: TNFα 30 ng/mL = 100%; for Conclusions: Is inhibition of TNF activation of NF-κB observed?: mean of three experiments
Protocol: The NF-kB pathway inhibition in response to treatment with the Cannabinoid and NHP either as single agents or in combination will be monitored using the Luciferase Reporter gene assay described in Del Prete et al, J. Nat. Prod.
For the anti-NF-κB activity stably transfected NIH-3T3-KBFLuc cells are treated with different concentration of NHP compounds for 30 minutes and then stimulated with TNF-α (30 ng/mL). After treatment, the cells are washed twice in phosphate-buffered saline and lysed in 25 mM Tris-phosphate pH 7.8, 8 mM MgCl2, 1 mM DTT, 1% Triton X-100, and 7% glycerol during 15 min at room temperature in a horizontal shaker. Luciferase activity in the supernatant is measured using a TriStar2 Berthold/LB942 multimode reader (Berthold Technologies) following the manufacturer's instructions of the luciferase assay kit (Promega, Madison, Wis., US). For NF-κB inhibition the RLU (relative light units) is calculated, and the results are normalized to 100% stimulation induced by induced by TNF-α (100% activation). The results are presented from three independent experiments.

C=C(C)[C@@H]1CCC(C)=C[C@H]1c1c(O)cc(CCCCC)cc1O [CBD, cannabidiol]
inhibition of NF-κB activity by the cannabinoid itself (10 μM, alone): non-inhibitory | Experiment 1 % of activity: 93.6% | Experiment 2 % of activity: 97.0% | Experiment 3 % of activity: 108.2% | Conclusions: Is inhibition of TNF activation of NF-κB observed?: Negative (Only treatments that the mean of three consecutive independent experiments shows a positive result (activity ≤50%) are considered inhibitory of NF-κB activity)

CCCCCc1cc(O)c2c(c1)OC(C)(C)[C@@H]1CCC(C)=C[C@@H]21 [THC, tetrahydrocannabinol]
Experiment 1 % of activity: 102.5% | Experiment 2 % of activity: 97.8% | Experiment 3 % of activity: 98.5% | Conclusions: Is inhibition of TNF activation of NF-κB observed?: Negative (Only treatments that the mean of three consecutive independent experiments shows a positive result (activity ≤50%) are considered inhibitory of NF-κB activity)
